For data set [1], the system named is patients with diarrhea-predominant IBS (dIBS). The data set can be described thus: 34-item IBS-QOL questionnaire, rifaximin 550 mg BID vs placebo. Type of data set: in vivo, human. Also noted: key to Mean Change From Baseline in IBS-QOL Scores at Week 4: change in score on 0–100 scale, higher = better QOL. Particulars: for Mean Change From Baseline in IBS-QOL Scores at Week 4: Rifaximin 1100 mg/d (n = 191). The protocol: Both groups received placebo for an additional 14 days after the initial 2-week treatment. Quality of life was assessed with the 34-item IBS-QOL questionnaire at baseline and 4 weeks after initiating treatment. Each item was scored on a 5-point scale (1=not at all; 2=slightly; 3=moderately; 4=quite a bit; and 5=extremely or a great deal). Results for composite and subscale scores were converted to a scale ranging from 0 to 100, with higher scores indicating better QOL.
Following a 2-week initial treatment period, both groups of patients received placebo for an additional 14 days. Quality of life was assessed via the 34-item IBS-QOL questionnaire at baseline and 4 weeks after initiating treatment. Each item was scored on a 5-point scale (1=not at all; 2=slightly; 3=moderately; 4=quite a bit; 5=extremely or a great deal); results for composite and subscale scores were converted to a scale ranging from 0 to 100, with higher scores indicating better QOL.

Data set [2] concerns patients with nonconstipation irritable bowel syndrome (non-C IBS). The experiment in a line: Trial of rifaximin 550 mg TID for 14 days with 10-week follow-up (Example 5; Study 2 of Example 6). Type of data set: in vivo, human.

In the case of “(2S,16Z,18E,20S,21S,22R, 23R,24R,25S,26S,27S,28E)-5,6,21,23,25 Pentahydroxy-27-methoxy -2,4,11,16,20,22,24,26-octamethyl-2,7-(epoxypentadeca-(1,11,13)trienimino)benzofuro (4,5-e) pyrido(1,2,-a) benzimidazole-1,15(2H)-dione,25-acetate [Rifaximin]”, the “Improvement with rifaximin over placebo, IBS-QOL at Week 4” value in data set [1] (Body image) was found to be 37.4%; in data set [1] (Dysphoria) it was 25.3%; in data set [1] (Food avoidance), 22.1%; in data set [1] (Health worry), 30.6%; in data set [1] (Interference with activity), 22.2%; in data set [1] (Overall score), 28.7%. The “Improvement with rifaximin over placebo, IBS-QOL at Week 4” value in data set [1] (Relationship) came out at 39.5%; in data set [1] (Sexual), 24.9%; in data set [1] (Social reaction) it was 31.6%. For the same substance, the “Mean Change From Baseline in IBS-QOL Scores at Week 4” value in data set [1] (Body image) was 20.1; in data set [1] (Dysphoria) it was 24.8; in data set [1] (Food avoidance) it was 25.0; in data set [1] (Health worry), 16.0; in data set [1] (Interference with activity), 22.2; in data set [1] (Overall score, 14 days, scale 0 to 100) it was 20.4. In addition, the “Mean Change From Baseline in IBS-QOL Scores at Week 4” value in data set [1] (Relationship) stood at 14.9; in data set [1] (Sexual) it was 13.6; in data set [1] (Social reaction) it was 17.3. In addition, the “Subjects with skin or subcutaneous tissue disorders” value in data set [2] (550 mg rifaximin TID) was found to be 1.3%. The “Early discontinuation of study, primary reason Adverse Event/Serious Adverse Event” value in data set [2] (Rifaximin 550 mg TID, randomized subjects (316)) was 0 n (%).

(Values after patent publication US11564912B2, “Methods for treating irritable bowel syndrome (IBS)” (Salix Pharmaceuticals, Inc., priority 2008, dated 2023).)
